From the NIST ThermoML archive (doi:10.1016/j.jct.2018.08.013)
Where “and” joins values, the source holds several entries; their conditions need not be identical. Identical values can stand only once.

Experiments:
[1] = xn = mol fraction of the nth substance listed; conditions: 298 K; 100 kPa; Crystal of intercomponent compound 1; X-ray diffraction; x2 = 0.542
[2] = specific heat capacity at constant pressure; xn = mol fraction of the nth substance listed; conditions: 100 kPa, Crystal of intercomponent compound 1, relaxation calorimetry, x2 = 0.542

[Te] [tellurium] + [In]
Conditions	mass density [kg/m3]
[1]	6307

[2]
Conditions	specific heat capacity
10.11 K	13.3 J/K/kg and 13.26 J/K/kg
10.12 K	13.3 J/K/kg
12.12 K	20.6 J/K/kg and 20.59 J/K/kg
12.13 K	20.65 J/K/kg
14.14 K	28.68 J/K/kg and 28.67 J/K/kg and 28.69 J/K/kg
16.15 K	36.99 J/K/kg
16.16 K	36.96 J/K/kg and 37.07 J/K/kg
18.17 K	45.25 J/K/kg
18.18 K	45.21 J/K/kg
20.18 K	53.21 J/K/kg
20.19 K	53.01 J/K/kg and 53.25 J/K/kg
22.2 K	60.8 J/K/kg and 61.01 J/K/kg and 60.84 J/K/kg
24.22 K	68.02 J/K/kg and 68.1 J/K/kg
26.23 K	74.95 J/K/kg
26.24 K	74.91 J/K/kg and 74.95 J/K/kg
28.25 K	81.26 J/K/kg and 81.31 J/K/kg
30.27 K	87.16 J/K/kg
35.3 K	101.02 J/K/kg
35.31 K	100.94 J/K/kg and 100.9 J/K/kg
40.34 K	112.78 J/K/kg and 112.99 J/K/kg
40.35 K	112.74 J/K/kg
45.38 K	122.93 J/K/kg and 123.09 J/K/kg
45.39 K	122.76 J/K/kg
50.41 K	132.54 J/K/kg
50.42 K	132.13 J/K/kg
50.43 K	132.04 J/K/kg
55.43 K	140.42 J/K/kg
55.45 K	139.92 J/K/kg
55.47 K	139.72 J/K/kg
60.47 K	146.93 J/K/kg
60.49 K	146.4 J/K/kg
60.51 K	146.44 J/K/kg
65.49 K	153.78 J/K/kg
65.53 K	152.79 J/K/kg
65.56 K	152.5 J/K/kg
70.51 K	159.39 J/K/kg
70.57 K	158.16 J/K/kg
70.61 K	157.78 J/K/kg
75.55 K	164.01 J/K/kg
75.61 K	162.86 J/K/kg
75.65 K	162.69 J/K/kg
80.58 K	169.46 J/K/kg
80.64 K	167.77 J/K/kg
80.7 K	167.02 J/K/kg
85.6 K	173.13 J/K/kg
85.68 K	172.14 J/K/kg
85.74 K	170.65 J/K/kg
90.65 K	176.64 J/K/kg
90.72 K	175.44 J/K/kg
90.77 K	175.19 J/K/kg
95.67 K	179.52 J/K/kg
95.75 K	178.16 J/K/kg
95.8 K	177.96 J/K/kg
100.78 K	180.43 J/K/kg
100.82 K	179.89 J/K/kg
100.89 K	181.75 J/K/kg
106.78 K	184.18 J/K/kg
106.86 K	182.66 J/K/kg
106.88 K	182.86 J/K/kg
113.77 K	186.45 J/K/kg
113.82 K	185.55 J/K/kg
113.85 K	185.13 J/K/kg
120.77 K	188.39 J/K/kg
120.8 K	188.64 J/K/kg
120.84 K	187.28 J/K/kg
127.76 K	189.79 J/K/kg
127.78 K	190.45 J/K/kg
127.81 K	189.51 J/K/kg
134.73 K	191.98 J/K/kg
134.75 K	191.11 J/K/kg
134.77 K	191.32 J/K/kg
141.7 K	193.51 J/K/kg
141.73 K	192.35 J/K/kg
141.74 K	193.09 J/K/kg
148.67 K	194.87 J/K/kg
148.71 K	194.62 J/K/kg and 193.75 J/K/kg
155.61 K	195.65 J/K/kg
